Data from patent US7585851B2, “3′-prodrugs of 2′-deoxy-β-L-nucleosides” (priority 2000, dated 2009).
Where “and” joins values, the source holds several entries; their conditions need not be identical. Identical values can stand only once. Entries after “also recorded” stand apart in the source; their conditions may differ. Like-named read-outs stand apart in the source and are kept apart here.

How the values were obtained:
[1] = test system: HSV-1; experiment: Antiviral panel: HSV-1 (HFF); format: cell-based
[2] = format: in vivo; conditions: woodchuck; for AUCt→24: t = […]; for Cmax: analyte = label, read-out: Cmax in plasma
[3] = test system: HepG2 cells; experiment: Mitochondrial toxicity assay in HepG2 cells; format: cell-based, human
[4] = test system: Influenza A/H1N1; experiment: Antiviral panel: Influenza A/H1N1 (MDCK); format: cell-based
[5] = rat, in vivo
[6] = Single dose bioavailability of dival-L-dC (IV and oral) in cynomologus monkey; format: in vivo, cynomologus monkey (macaca fascicularis)
Source text: The drug was quantitated in plasma and urine with a liquid chromatography-mass spectrometry (LC-MS) technique.

[7] = test system: Influenza B; experiment: Antiviral panel: Influenza B (MDCK); format: cell-based
[8] = test system: RSV type A; experiment: Antiviral panel: RSV type A (MA-104); format: cell-based
[9] = Oral bioavailability of L-dC via dival-L-dC in cynomologus monkey (HPLC study); conditions: cynomolgus monkey, in vivo, po
Source text: The drug was quantitated in plasma and in urine using HPLC analysis.

[10] = test system: CV-1, African green monkey kidney fibroblast cells
[11] = test system: WHV; conditions: 0.01-10 mg/kg/day orally, woodchucks
[12] = test system: HBV; experiment: Anti-HBV activity in HBV-expressing 2.2.15 cells (HBV DNA reduction); conditions: 2.2.15 cells
[13] = format: in vivo, cynomologus monkey
Method: The pharmacokinetics of L-dC following IV and oral administration of L-dC to cynomologus monkeys was determined. […] Following a six week washout period, the same three monkeys received an identical oral dose of L-dC. Blood samples for pharmacokinetic analysis were collected pre-dose and at 0.25, 0.5, 1, 2, 3, 6, 8 and 24 hours after dosing. Urine samples for pharmacokinetic analyses were collected via pan catch pre-dose and over the following intervals post-dose: 0-2, […], 4-8, and 8-12 hours, and then over 12-hour intervals thereafter through 336 hours post-dose. The drug was detected and the concentration determined using a reverse-phase high-performance liquid chromatography technique.

[14] = monkey, in vivo, 2000 mg/kg
[15] = test system: MA-104, rhesus monkey kidney epithelial cells
[16] = test system: HSV-2; experiment: Antiviral panel: HSV-2 (HFF); format: cell-based
[17] = test system: Measles; experiment: Antiviral panel: Measles (CV-1); format: cell-based
[18] = test system: cytosolic extracts of HepG2 cells; experiment: Steady state phosphorylation kinetics in HepG2 cytosolic extracts; format: biochemical, human
[19] = test system: DHBV; experiment: DHBV DNA synthesis in primary duck hepatocyte cultures; format: cell-based, duck hepatitis B virus; conditions: primary duck hepatocytes (PDH)
[20] = test system: Influenza A/H3N2; experiment: Antiviral panel: Influenza A/H3N2 (MDCK); format: cell-based
[21] = test system: Parainfluenza type 3; experiment: Antiviral panel: Parainfluenza type 3 (MA-104); format: cell-based
[22] = human
[23] = format: in vivo, rhesus monkey
Method: The pharmacokinetics of L-dC following oral administration in the rhesus monkey was determined. […] Blood samples for pharmacokinetic analysis were collected pre-dose and at 0.25, 0.5, 1, 2, 3, 6, 8 and 24 hours after dosing. Urine samples for pharmacokinetic analyses were collected via pan catch pre-dose and over the following intervals post-dose: 0-2, 2-4, 4-8 and 8-12 hours, and then at 12-hour intervals thereafter through 336 hours post-dose. The drug was detected and concentration determined using a reverse-phase HPLC technique.

[24] = test system: HFF, human foreskin fibroblast
[25] = Bioavailability of the prodrugs of L-dC in monkeys, with and without L-dT; conditions: oral
[26] = test system: Rhinovirus type 5; experiment: Antiviral panel: Rhinovirus type 5 (KB); format: cell-based
[27] = HepG2, L-dC 10, FIAU 10, ZDV 50, ddC 1 μM
[28] = dival-L-dC 10 mg/kg oral, monkey
[29] = L-dC 10 mg/kg IV, cynomologus monkey
[30] = L-dC 10 mg/kg oral, cynomologus monkey
[31] = L-dC 10 mg/kg oral, rhesus monkey

## Nc1ccn([C@@H]2C[C@@H](O)[C@H](CO)O2)c(=O)n1 [L-dC, 2′-deoxy-β-L-cytidine]
[1]
  EC50: >100 µg/mL
[2]; L-dC 10 mg/kg IV
  CL: 6.5 mL/min/kg
  Tmax: 0 h
  Vd: 1.17 L/kg
  t1/2: 2.85 h
  AUCt→24: 174 µM·h
  Cmax: 112 µM
[2]; L-dC 10 mg/kg PO vs IV
  oral bioavailability F: 9.57%
[2]; L-dC 10 mg/kg PO
  Tmax: 3 h
  t1/2: 5.22 h
  AUCt→24: 11.3 µM·h
  Cmax: 1.37 µM
[3]; HepG2, 14 days, concentrations up to 0.10 μM
  effect on mitochondrial DNA content: no effect
[3]; HepG2, after 14 days of treatment
  CC50: > 2000 µM
[3]; [27]
  L-Lactate, % of Control: 101 ± 2 % of Control
  Lipid Droplet Formation: negative
  mtDNA, % of Control: 107 ± 8 % of Control
[3]; HepG2, L-dC 10, FIAU 10, ZDV 50, ddC 1 μM, electron microscopy
  Mitochondrial Morphology: No discernible changes; also recorded: normal
[4]
  EC50: > 100 µM
[5]
  Tlast: 24 h
[5]; 1000 mg/kg
  estimated terminal phase half-lives: 9 to 17 h
[5]; 2000 mg/kg
  estimated terminal phase half-lives: 6 to 8 h
[5]; po, 2000 mg/kg/day
  AUClast: 461 µg·h/mL
[6]; IV dival-L-dC, analyte = label
  share of drug excreted / recovered dose in urine, by analyte: ~93%
[6]; Intravenous (10 mg/kg Dival-L-dC), analyte = label, read-out: Cmax of each metabolite
  Cmax: 24.6 µM
[6]; Oral (10 mg/kg dival-L-dC), analyte = label, read-out: Cmax of each metabolite
  Cmax: 8.26 µM
[6]; dival-L-dC 10 mg/kg IV, monkey
  AUC0.25→8 of L-dC: 19.8 µM·h
  CL of L-dC: 16.8 mL/min/kg
  Vd of L-dC: 2.46 L/kg
  t1/2 of L-dC: 1.73 h
[6]; dival-L-dC 10 mg/kg IV, monkey, read-out: Cmax of L-dC
  Cmax: 24.6 µM
[6]; [28]
  AUC0.25→8 of L-dC: 14.0 µM·h
  Tmax of L-dC: 0.67 h
  t1/2 of L-dC: 2.28 h
[6]; oral dival-L-dC
  share of plasma drug levels at Cmax: > 99%
[6]; oral dival-L-dC, analyte = label
  share of drug excreted / recovered dose in urine, by analyte: ~95%
[7]
  EC50: > 100 µM
[8]
  EC50: > 100 µM
[9]
  share of drug excreted / recovered dose in urine, by analyte: ~89%
[10]
  CC50: > 100 µM
[11]
  toxicity during four-week treatment and eight-week follow-up: no drug-related toxicity; also recorded: no toxicity was observed
[12]; 10-fold reduction of HBV virion DNA levels (Table 25)
  EC90: 1.1 ± 0.1 µM
[12]; read-out: EC50 for reduction in extracellular HBV DNA
  EC50: 0.24 µM
[12]; read-out: EC50 for reduction of intracellular HBV DNA replicative intermediates (RI)
  EC50: 0.51 µM and 0.5 µM
[12]; read-out: EC90 against HBV replication (extracellular HBV DNA)
  EC90: 1.07 µM and 1.06 µM
[13]; IV
  renal clearance as share of total L-dC clearance: 87%
[13]; IV L-dC, analyte = label
  share of the dose recovered in the urine, by analyte: 94%
[13]; IV, within 2 hours
  administered dose recovered in urine: 71%
[13]; [29]
  CL: 8.83 mL/min/kg
  CLR: 7.67 mL/min/kg
  Cmax: 95.7 µM
  Tmax: 0 h
  Vd: 1.22 L/kg
  t1/2: 1.59 h
[13]; L-dC 10 mg/kg oral vs IV, cynomologus monkey
  oral bioavailability F: 16.4%
[13]; [30]
  Cmax: 3.38 µM
  Tmax: 2.33 h
  terminal t1/2: 2.95 h
[13]; oral L-dC, analyte = label
  share of drug excreted / recovered dose in urine, by analyte: ~69%
[13]; after 72 hours
  administered oral dose recovered in urine: 15.5%±8%
[13]; within 12 hours
  administered oral dose recovered in urine: Approximately 8.5%
[14]
  estimated terminal phase mean half-lives: 4 to 5 h
[15]
  CC50: > 100 µM
[16]
  EC50: >100 µg/mL
[17]
  EC50: > 100 µM
[18]
  Vmax of phosphorylation: 1.12 mmol/min/mg protein
[19]
  EC50: 0.87 µM
[20]
  EC50: > 100 µM
[21]
  EC50: > 100 µM
[22]
  plasma protein binding: 19.7%±5.9%
[23]; [31]
  Tmax: 0.83 h
  renal clearance: 4.55 mL/min/kg
  t1/2: 3.34 h
[23]; L-dC oral, rhesus monkey
  oral bioavailability: ~16%
[23]; after 48 hours
  administered oral dose recovered in urine: 15%
[23]; oral L-dC, analyte = label
  share of drug excreted / recovered dose in urine, by analyte: ~77%
[23]; within 8 hours
  administered oral dose recovered in urine: Approximately 8.5%
[24]
  CC50: >100 µg/mL
[25]; coadministered with 10 mg/kg L-dT
  % BA w/ L-dT: 11.9 ± 1.7%
[25]; estimated relative to AUC of L-dC (oral dose)
  % BA (bioavailability of L-dC): 16.4 ± 5.0%
[26]
  EC50: > 100 µM
